Calls of active or inactive are those of the source. The rule behind the calls is not given here.
Experiments:
[1] = tested on: RPMI-8226; test: cells; conditions: Homo sapiens, RPMI-8226, 24 h
[2] = Toxicity in Balb/c nude mouse xenografted with human RPMI-8226 cells assessed as adverse effect on kidney at 10 to 40 mg/kg, po qd for 21 days administered consecutively by H and E staining based analysis; type: organism-based; conditions: in vivo, 504 h, dose 10-40 mg/kg, time 21 day
[3] = tested on: RPMI-8226; test: Induction of cell cycle arrest at G2 phase in human RPMI-8226 cells at 2.5 uM incubated for 24 hrs by PI staining based flow cytometry (reference value: 18.3 %); type: functional
[4] = biological target: Histone deacetylase 1 (Homo sapiens, UniProt Q13547); test: Inhibition of HDAC1 (unknown origin) preincubated for 10 mins followed by substrate addition measured for 1 hr by fluorescence based assay
[5] = tested on: HCT-116; test: Cytotoxicity against human HCT-116 cells assessed as inhibition of cell viability incubated for 24 hrs by CCK8 assay; type: functional, cell-based; conditions: HCT-116, 24 h
[6] = tested on: RPMI-8226; test: Induction of cell cycle arrest at G1 phase in human RPMI-8226 cells at 0.1 uM incubated for 24 hrs by PI staining based flow cytometry (reference value: 19.2 %); type: functional
[7] = AUC (0 to t) in mouse at 10 mg/kg, po; type: ADME, organism-based; conditions: in vivo
[8] = tested on: RPMI-8226; test: Induction of apoptosis in human RPMI-8226 cells assessed as increase in p53 expression at 0.1 to 2.5 uM incubated for 24 hrs by Western blot analysis; type: functional, cell-based; conditions: dose 0.1-2.5 µM

Chain of Histone deacetylase 1 (Q13547 whole entry): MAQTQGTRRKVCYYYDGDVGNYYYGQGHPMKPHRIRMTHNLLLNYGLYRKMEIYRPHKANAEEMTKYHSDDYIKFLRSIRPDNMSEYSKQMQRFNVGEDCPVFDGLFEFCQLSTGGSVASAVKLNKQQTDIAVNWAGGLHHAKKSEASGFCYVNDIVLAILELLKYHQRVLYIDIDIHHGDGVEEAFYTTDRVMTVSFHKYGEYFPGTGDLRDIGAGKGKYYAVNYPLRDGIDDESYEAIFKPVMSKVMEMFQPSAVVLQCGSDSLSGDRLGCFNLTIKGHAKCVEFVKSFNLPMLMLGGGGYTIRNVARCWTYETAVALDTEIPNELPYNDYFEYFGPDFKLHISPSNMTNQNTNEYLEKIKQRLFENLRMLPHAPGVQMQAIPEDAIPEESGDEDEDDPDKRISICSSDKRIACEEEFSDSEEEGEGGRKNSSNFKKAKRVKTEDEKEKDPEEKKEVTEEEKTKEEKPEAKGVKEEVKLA

With `Cn1c([C@@H](Cc2ccccc2)NCc2ccccc2)nc2cc(C(=O)NO)ccc21` the IC50 [1] was 528 nM, the Activity [2] was “Non-Toxic” and the Activity [3] was 25.6%. The IC50 [4] was 1130 nM, the IC50 [5] was 15200 nM and the Activity [6] was 18.2%. The AUC(0-t) [7] was 52.1 ng·h/mL and the Activity [8] was “Active”.
